Measured values taken from US20080312192A1, “Diaryl Urea Derivatives in the Treatment of Protein Kinase Dependent Diseases” (priority 2003, published 2008).

What was measured:
D835Y-Ba/F3 = conditions: Mus musculus, BaF3, 48 h, read-out: Inhibition of Flt-3 dependent Proliferation (ED50) D835-mutant
Protocol: (§1) Inhibition of Proliferation in Flt-3 Dependent Ba/F3 Cells:
(§2) The compound's potential to penetrate cell membranes and exert antiproliferative effects is determined in Ba/F3 cells dependent on mutated [ITD or D835Y; Gilliland and Griffin, Blood, Vol. 100, No. 5, 153242 (2002)] Flt-3 receptor kinases.
(§3) A modified protocol of the YO-PRO-1 assay in a 96-well format is based on the use of the wild-type IL-3-dependent hematopoietic cell line Ba/F3 (DSMZ, Braunschweig, Germany) and the mutant sub-lines ITD-Ba/F3 or D835Y-Ba/F3 [Weisberg et al., Cancer Cell 1 (5):433-43 (2000)] expressing constitutively activating Flt-3 kinases.
(§4) ITD-FLT3- or D835Y-FLT3-Ba/F3 cells are diluted in fresh medium to a final concentration of 3×10^5 cells per ml and 50 μl aliquots seeded into 96-well plates (1.5×10^4 cells per well). Subsequently, 50 μl 2× compound solutions were added and cells incubated for 48 h. The anti-proliferative and apoptotic activity of a compound is initially tested in triplicates at 10 μM, 1 μM and 0.1 μM concentration on both cell lines. Cells treated with DMSO alone (added to a final concentration of 0.1%) always serves as a control. In addition, a plate blank value is routinely determined in a well containing only 100 μl of medium and no cells.
(§5) To further profile a compound an ED50 determination is done starting at 10 μM or 3 μM of the compound of interest. From those concentrations, stepwise nine dilutions are prepared reaching the final concentrations of 2 μM and 0.5 μM, respectively.
(§6) Activity of inhibitors is assessed by the YO-PRO-1 assay as previously described in [Idziorek et al., J. Immunol. […] Briefly, after the treatment period of 48 h, a 25 μl aliquot of a solution containing 100 mM sodium citrate, pH 4.0, 134 mM sodium chloride and 12.5 μM YO-PRO-1 dye (YO-PRO-1 iodide, #Y3603, Molecular Probes) is directly added to the 100 μl medium in the wells of the 96-well plate. That results in a final dye concentration of 2.5 μM, the plate is then incubated for 10 min at ambient temperature in the dark. The uptake of the YO-PRO-1 dye into cells is assessed by a first measurement using a Cytofluor II 96-well plate reader (PerSeptive Biosystems) with the following settings: Excitation (nm) 485120 and Emission (nm) 530/25, Gain 75. After this first reading, 25 μl of lysis buffer consisting of 20 mM sodium citrate, pH 4.0, 26.8 mM sodium chloride, 0.4% NP40, 20 mM EDTA and 20 mM is added to each well. Cell lysis is completed within 60 min at room temperature and total amount of YO-PRO-1 bound to DNA is determined by a second measurement using the Cytofluor II 96-well reader with the identical setting as described above.

RET = target: T1, RET (Homo sapiens, UniProt P07949); experiment: RET kinase inhibition (33P incorporation into poly(Glu,Tyr), GST-wtRET or GST-RET-Men2B); format: biochemical
T1 construct: expresses the amino acid region 658-1072 (Swiss prot No. Q9BTB0); made in house; host or cells: Sf9 insect cells (baculovirus, vector pFB-GSTX3)
T1 sequence (P07949 658-1072 isoform P07949-2): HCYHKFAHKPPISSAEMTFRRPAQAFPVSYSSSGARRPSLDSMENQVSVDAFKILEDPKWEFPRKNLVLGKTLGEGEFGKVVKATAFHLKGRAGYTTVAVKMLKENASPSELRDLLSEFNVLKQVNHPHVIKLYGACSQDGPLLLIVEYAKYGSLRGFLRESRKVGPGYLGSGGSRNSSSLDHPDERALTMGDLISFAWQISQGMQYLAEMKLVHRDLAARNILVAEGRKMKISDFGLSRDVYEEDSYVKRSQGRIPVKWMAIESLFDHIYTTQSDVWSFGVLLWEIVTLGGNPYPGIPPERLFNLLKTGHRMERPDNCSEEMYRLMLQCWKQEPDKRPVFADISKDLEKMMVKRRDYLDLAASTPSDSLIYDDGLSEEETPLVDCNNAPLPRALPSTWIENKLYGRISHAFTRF
Protocol: RET kinase inhibition is determined as follows:
The coding sequence for the cytoplasmic domain of wtRET is amplified by PCR from a cDNA library using specific primers. RET-Men2B is generated through site-directed mutagenesis resulting in the M918T mutation. The amplified DNA fragments and the pFB-GSTX3 vector are made compatible for ligation by digestion with SalI and KpnI. Ligation of these DNA fragments results in the baculovirus donor plasmids […] and pFB-GX3-RET-Men2B, respectively.
Production of virus: The baculovirus donor plasmids containing the kinase domains are transfected into the DH10Bac cell line (GIBCO) and the transfected cells are plated on selective agar plates. Colonies without insertion of the fusion sequence into the viral genome (carried by the bacteria) are blue. Single, white colonies are picked and viral DNA (bacmid) is isolated from the bacteria by standard plasmid purification procedures. Sf9 cells or Sf21 cells (American Type Culture Collection) are then transfected in 25 cm^2 flasks with the viral DNA using Cellfectin reagent.
Protein expression in Sf9 cells: Virus-containing media is collected from the transfected cell culture and used for infection to increase its titer. Virus-containing media obtained after two rounds of infection is used for large-scale protein expression. For large-scale protein expression 100 cm^2 round tissue culture plates are seeded with 5×10^7 cells/plate and infected with 1 mL of virus-containing media (approximately 5 MOIs). After 3 days, the cells are scraped off the plate and centrifuged at 500 rpm for 5 minutes. Cell pellets from 10-20, 100 cm^2 plates are re-suspended in 50 mL of ice-cold lysis buffer (25 mM Tris-HCl, pH 7.5, 2 mM EDTA, 1% NP-40, 1 mM DTT, 1 mM PMSF). The cells are stirred on ice for 15 minutes and then centrifuged at 5,000 rpms for 20 minutes.
Purification of GST-tagged proteins: The centrifuged cell lysate is loaded onto a 2 mL glutathione-sepharose column (Pharmacia) and washed 3× with 10 mL of 25 mM Tris-HCl, pH 7.5, 2 mM EDTA, 1 mM DTT, 200 mM NaCl. The GST-tagged proteins are then eluted by 10 applications (1 mL each) of 25 mM Tris-HCl, pH 7.5, 10 mM reduced-glutathione, 100 mM NaCl, 1 mM DTT, 10% glycerol and stored at −70° C.
Measure of enzyme activity: Tyrosine protein kinase assays with either purified GST-wtRET or GST-RET-Men2B protein are carried out in a final volume of 30 μL containing 15 ng of either GST-RET or GST-RET-Men2B protein, 20 mM Tris-HCl, pH 7.5, 1 mM MnCl2, 10 mM MgCl2, 1 mM DTT, 3 μg/mL poly(Glu, Tyr) 4:1, 1% DMSO, 2.0 μM ATP (γ-[^33P]-ATP 0.1 μCi). The activity is assayed in the presence or absence of inhibitors, by measuring the incorporation of ^33P from [γ^33P] ATP into poly(Glu, Tyr) 4:1. […] Subsequently, 40 μL of the reaction mixture are transferred onto Immobilon-PVDF membrane (Millipore) previously soaked for 5 minutes with methanol, rinsed with water, then soaked for 5 minutes with 0.5% H3PO4 and mounted on vacuum manifold with disconnected vacuum source. After spotting all samples, vacuum is connected and each well rinsed with 200 μL 0.5% H3PO4. Membranes are removed and washed 4× on a shaker with 1.0% H3PO4, once with ethanol. Membranes are counted after drying at ambient temperature, mounting in Packard TopCount 96-well frame, and addition of 10 μl/well of Microscint™ (Packard). […] One unit of protein kinase activity is defined as 1 nmole of ^33P transferred from [γ^33P] ATP to the substrate protein/minute/mg of protein at 37° C.

ITD-Ba/F3 = conditions: Mus musculus, BaF3, 48 h, read-out: Inhibition of Flt-3 dependent Proliferation (ED50) ITD-mutant
Protocol: as §1, §2, §3, §4, §5, §6

EC50 (D835Y-Ba/F3) [nM]	IC50 (RET) [nM]	EC50 (ITD-Ba/F3) [nM]	SMILES
0.5	400	< 0.2	CC(C)N1CCN(Cc2ccc(NC(=O)Nc3ccc(Oc4ccnc(N)n4)cc3)cc2C(F)(F)F)CC1 [Example 45, N-[4-(2-Amino-pyrimidin-4-yloxy)-phenyl]-N′-[4-(4-isopropylpiperazin-1-ylmethyl)-3-trifluoromethyl-phenyl]-urea]
3.3	350	0.1	CCN1CCN(Cc2ccc(NC(=O)Nc3ccc(Oc4ccnc(NC)n4)cc3)cc2C(F)(F)F)CC1 [Example 53c, 1-[4-(4-Ethyl-piperazin-1-ylmethyl)-3-trifluoromethyl-phenyl]-3-[4-(2-methylamino-pyrimidin-4-yloxy)-phenyl]-urea]
